Source: PubChem BioAssay (NCI)
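Protocol summary: plate cells (96-well), add compound at 5 concentrations, incubate 48 h, interpolate endpoints linearly. Abbreviation: GI50, concentration required for 50% inhibition of growth. The concentration for full growth arrest is given as TGI.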

Legend:
Test in all cases: growth of human tumour cells (NCI), 48 h
[1] = tested on: HOP-62 NSCLC
[2] = tested on: HOP-92 NSCLC
[3] = tested on: MOLT-4 leukemia
[4] = tested on: NCI-H226 lung
[5] = tested on: SW-620 colon
[6] = tested on: ACHN renal
[7] = tested on: OVCAR-3 ovarian
[8] = tested on: UO-31 renal
[9] = tested on: SF-295 CNS
[10] = tested on: HT29 colon

| SMILES | GI50 [1] | TGI [1] | GI50 [2] | TGI [2] | GI50 [3] | TGI [3] | GI50 [4] | TGI [4] | GI50 [5] | TGI [5] | GI50 [6] | TGI [6] | GI50 [7] | TGI [7] | GI50 [8] | TGI [8] | GI50 [9] | TGI [9] | GI50 [10] | TGI [10] |
| --- | --- | --- | --- | --- | --- | --- | --- | --- | --- | --- | --- | --- | --- | --- | --- | --- | --- | --- | --- | --- |
| C/C=C(/C)C(=O)OC1C=C(CO)C(=O)C(OC(=O)C(C)(O)C(C)Cl)C1C(C)C (centres undefined) | 2.1 µM | 4.89 µM | 1.77 µM | 3.57 µM | 0.301 µM | 4.88 µM | 3.72 µM | 13 µM | 1.69 µM | 4.08 µM | 0.829 µM | 2.06 µM | 0.648 µM | 1.98 µM | 1.34 µM | 2.64 µM | 1.94 µM | 4.79 µM | 1.47 µM | 3.56 µM |
| COC(=O)C1=C(C(=O)OC)C2OC1c1cc3ccccc3cc12 |  | 34.7 µM |  | 6.34 µM |  | 3.22 µM |  | 11.6 µM |  | 3.96 µM |  | 3.03 µM |  | 7.29 µM |  | 2.91 µM |  | 38.3 µM |  | 20.4 µM |
| Cc1cc(NNC(=O)c2ccccc2O)nc(Nc2nc3ccccc3o2)n1 | 0.865 µM | 13.5 µM | 1.11 µM | 13.9 µM | 1.31 µM | 7.88 µM | 1.66 µM | 8.47 µM | 3.03 µM | 17.8 µM | 1.02 µM | 12.2 µM | 2.06 µM | 15.6 µM | 0.622 µM | 1.91 µM | 0.846 µM | 14.4 µM | 3.31 µM | 15.4 µM |
| O=C(Nc1cccc(Cl)c1)c1cc(N=Nc2ccc([N+](=O)[O-])cc2Cl)ccc1O | 3.27 µM | 9.46 µM | 1.24 µM | 4.12 µM | 1.74 µM | 4.4 µM | 2.88 µM | 16.6 µM | 2.95 µM |  | 2.3 µM | 6.46 µM | 1.06 µM | 4.38 µM | 2.16 µM | 6.08 µM | 1.49 µM | 3.22 µM | 2.83 µM | 9.5 µM |
| Cc1cc(C)nc(NS(=O)(=O)c2ccc(NC(=O)c3ccc(Cl)c4c(Nc5ccc(S(=O)(=O)N=C(N)N)cc5)c5ccccc5nc34)cc2)n1 |  | > 100 µM |  | 67.7 µM |  | 63.2 µM |  | > 100 µM |  | 76 µM |  | > 100 µM |  | > 100 µM |  | > 100 µM |  | > 100 µM |  | 30.2 µM |
| Cc1cn2c(/C=C3/C(=O)Nc4ccc(F)cc43)c(C)nc2s1 | 8.81 µM | > 50 µM | 4.74 µM | 29 µM | 5.02 µM | 33.2 µM | 17.1 µM | > 50 µM | 3.18 µM | > 50 µM | 17.2 µM | > 50 µM | 3.5 µM | > 50 µM | 6.62 µM | 40.8 µM | 3.76 µM | 34.6 µM | 1.68 µM | 14.9 µM |
| CCCCCCN(C)Cc1ccc(OCCOc2ccc(CN(C)CCCCCC)cc2)cc1 | 1.48 µM | 3.15 µM | 0.407 µM | 2.05 µM | 2.48 µM | 10.5 µM | 1.53 µM | 3.19 µM | 1.48 µM | 3.13 µM | 1.62 µM | 3.63 µM | 1.36 µM | 2.91 µM | 1.04 µM | 5.01 µM | 1.23 µM | 2.76 µM | 0.375 µM | 1.53 µM |
| COc1cc2ncn(-c3cc(OCc4ccccc4C(F)(F)F)c(C(C)=O)s3)c2cc1OC | > 25 µM | > 25 µM | 10.8 µM | > 25 µM | > 25 µM | > 25 µM | > 25 µM | > 25 µM | > 25 µM | > 25 µM | > 25 µM | > 25 µM | > 25 µM | > 25 µM | > 25 µM | > 25 µM | > 25 µM | > 25 µM | > 25 µM | > 25 µM |
| CC(O)CN1c2ccccc2Sc2ccc(Cl)cc21 (centres undefined) |  | > 10 µM |  | > 10 µM |  | > 10 µM |  | > 10 µM |  | > 10 µM |  | > 10 µM |  | > 10 µM |  | > 10 µM |  | > 10 µM |  | > 10 µM |
| Cc1nnc(-c2ccc(C)c(-c3ccc(C(=O)NCc4ccc(Cl)cc4)cc3)c2)o1 | 14.7 µM | > 25 µM | 3.26 µM | > 25 µM | 9.73 µM | > 25 µM | 6.93 µM | > 25 µM | > 25 µM | > 25 µM | 12.4 µM | > 25 µM | 11.6 µM | > 25 µM | 4.37 µM | > 25 µM | 7.16 µM | > 25 µM | 19.8 µM | > 25 µM |
| CCOC(=O)c1cc(-c2ccc(OC)c(OC)c2)[nH]c1N/N=C/c1c(Cl)cccc1Cl | 2.51 µM | 14.5 µM | 4.58 µM | 26.8 µM | 3.27 µM | > 80.9 µM | 1.81 µM | 9.36 µM | 2.5 µM | > 44.5 µM | 3.23 µM | 16.2 µM | 0.74 µM | 2.64 µM | 4.32 µM | 37.6 µM | 0.461 µM | 8.31 µM | 0.913 µM | 6.28 µM |
| O=C(Nc1ccc2c(c1)OCO2)C(=O)c1c[nH]c2cc(F)ccc12 | 5.11 µM | 21.9 µM | 1.12 µM | 5.6 µM | 11.7 µM | 69.2 µM | 3.74 µM | 16.8 µM | 2.07 µM | > 100 µM | 0.547 µM | 20.4 µM | 4.67 µM | 19 µM | 4.42 µM | 44.9 µM | 2.19 µM | 21.5 µM | 8.04 µM | > 100 µM |
| O=C1C(=O)N(c2cccc(C(F)(F)F)c2)C(=O)C(=O)C1c1nc2ccccc2s1 |  | > 100 µM |  | > 100 µM |  | > 100 µM |  | > 100 µM |  | > 100 µM |  | > 100 µM |  | > 100 µM |  | > 100 µM |  | > 100 µM |  | > 100 µM |
| CSc1ccc(C2=NN(C(C)=O)C(c3ccc(F)cc3)C2)cc1 (centres undefined) | 16.6 µM | 31.1 µM | 10.1 µM | 22.1 µM | 2.36 µM | 9.69 µM | 13.7 µM | 31.5 µM | 17.7 µM | 40.3 µM | 16.9 µM | 35.6 µM | 16.2 µM | 49.5 µM | 14.2 µM | 29.8 µM | 16.4 µM | 36.2 µM | 15.2 µM | 46 µM |
| CN1CCN(Cc2ccc(NC(=O)c3cncc(C#Cc4cnn5ccccc45)c3)cc2C(F)(F)F)CC1 | 0.939 µM | 2.93 µM | 0.633 µM | 2.98 µM | 0.358 µM | 3.56 µM | 0.592 µM | 3.43 µM | 0.382 µM | 3.22 µM | 0.873 µM | 3.72 µM | 1.43 µM | 3.62 µM | 1.17 µM | 3.39 µM | 0.916 µM | 3.35 µM | 0.811 µM | 4.89 µM |
| COc1ccc(/C=C2\CC(C)CC3C2=NN(c2ccccc2)C3c2ccc(OC)c(OC)c2)cc1OC (centres undefined) | 4.87 µM | 17 µM | 5.32 µM | > 100 µM | 2.69 µM | 92.4 µM | 3.09 µM | 9.75 µM | 3.96 µM | > 100 µM | 4.48 µM | 48.6 µM | 3.71 µM | > 100 µM | 5.75 µM | > 100 µM | 3.59 µM | 57.6 µM | 3.18 µM | 16.1 µM |
| CC(=O)ON(C(C)=O)C1C(COC(c2ccccc2)(c2ccccc2)c2ccccc2)OC2OC3(CCCC3)OC21 (centres undefined) |  | > 100 µM |  | 8.27 µM |  | > 31 µM |  | > 100 µM |  | > 100 µM |  | > 100 µM |  | > 100 µM |  | > 100 µM |  | > 100 µM |  | > 100 µM |
| COc1ccc(NC(=O)CCc2cc(C(C)(C)C)n[nH]2)cc1 |  | > 100 µM |  | > 100 µM |  | > 100 µM |  | > 100 µM |  | > 100 µM |  | > 100 µM |  | > 100 µM |  | > 100 µM |  | > 100 µM |  | > 100 µM |
| O=C(Cn1c(C(=O)c2ccccc2)nc2ccccc21)c1ccc(F)cc1 | 9.44 µM | > 100 µM | 60.2 µM | > 100 µM | 2.49 µM | > 28.1 µM | > 100 µM | > 100 µM | 3.28 µM | > 100 µM | > 59.7 µM | > 100 µM | 3.39 µM | > 25.5 µM | > 43.8 µM | > 100 µM | 9.44 µM | > 100 µM | 3.51 µM | > 100 µM |
| Cc1ccc(/C=C(\C#N)c2ccccc2)cc1 |  | > 100 µM |  | > 100 µM |  | > 100 µM |  | > 100 µM |  | > 100 µM |  | > 100 µM |  | > 100 µM |  | > 100 µM |  | > 100 µM |  | > 100 µM |
| CC[C@@H](C)Nc1cc(C(=O)NC2CC3CCC(C2)N3c2ccc(C(=O)C3CC3)cn2)c(C)cc1C(N)=O (some centres undefined) | 0.0598 µM | > 100 µM | 0.0422 µM | 0.599 µM | 0.0374 µM | 31 µM | 0.0568 µM | 51.1 µM | 0.0323 µM | > 100 µM | 0.0441 µM | > 100 µM | 0.0672 µM | > 88.1 µM | 0.0479 µM | > 100 µM | 0.0288 µM | > 100 µM | 0.0111 µM | 15.9 µM |
